Source: patent US9457106B2, “Cancer therapy” (priority 2011, dated 2016)
Where two headings read alike, the source gives them in different places.

Legend:
[1] = cited from earlier work; for Maximum particle energy: beta particles
[2] = for Formation of a precipitate: 1 mL calcium chloride solution (50 mM) added to 10 mL of 100 mM phosphate solution

Row | Compound | Half-life ([1]; beta emitters) | Maximum particle energy [1] | other results
1 | [90Y] [yttrium-90] | 2.68 days | 2.27 MeV | 
2 | O=P([O-])(O)O.[Na+] [sodium dihydrogen phosphate] |  |  | Formation of a precipitate [2]: no precipitate was formed; Amount of precipitate formed as a function of sodium hydroxide (0.05 M) added ([2]; 50 mL sodium dihydrogen phosphate (100 mM) and 5 mL calcium chloride (50 mM)): a precipitate of calcium phosphate begins to form
3 | phosphorus-32 | approximately 14 days | 1.71 MeV | 
4 | [153Sm] [samarium-153] | 1.96 days | 0.7 (>50%) MeV | 
5 | [89Sr] [strontium-89] | 51 days | 1.46 MeV | 
6 | [125IH] [iodine-125] |  |  | Half-life ([1]; electron capture emitters): 60 days; Particle energy ([1]; electron capture emitters): 0.035 MeV
7 | [103Ru] [ruthenium-103] | 40 days | 0.214 MeV | 
8 | [131IH] [iodine-131] | 8.04 days | 0.61 MeV | 
9 | O=P([O-])([O-])O.[Na+].[Na+] [disodium hydrogen phosphate] |  |  | Formation of a precipitate [2]: heavy visible precipitate
10 | [103Pd] [palladium-103] |  |  | Half-life ([1]; electron capture emitters): 17 days; Particle energy ([1]; electron capture emitters): 0.05 MeV
